Where two headings read alike, the source gives them in different places.
Tests used:
[1] = test system: cellular dehydrogenase activity; conditions: for MTT (composite Z-score): normalized score vs mock-treated (DMSO) wells
OXPHOS gene expression = format: cell-based, mouse; conditions: for GE-HTS (composite Z-score): normalized score vs mock-treated (DMSO) wells
mtOXPHOS transcripts = format: cell-based, mouse; conditions: for mitoOX (composite Z-score): normalized score vs mock-treated (DMSO) wells
C2C12 myotubes = conditions: for Viability (composite Z-score): normalized score vs mock-treated (DMSO) wells
reactive oxygen species = format: cell-based, mouse; conditions: for ROS (composite Z-score): normalized score vs mock-treated (DMSO) wells
nuOXPHOS transcripts = format: cell-based, mouse; conditions: for nucOX (composite Z-score): normalized score vs mock-treated (DMSO) wells
cytochrome c = format: cell-based, mouse; conditions: for cyt c (composite Z-score): normalized score vs mock-treated (DMSO) wells
Sequence of cytochrome c (P62897 whole entry): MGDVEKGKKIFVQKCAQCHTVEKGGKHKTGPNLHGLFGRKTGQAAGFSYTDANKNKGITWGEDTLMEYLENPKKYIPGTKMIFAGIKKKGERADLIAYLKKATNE

[2] = test system: mitochondrial membrane potential; format: cell-based, mouse; conditions: for ΔΨm (composite Z-score): normalized score vs mock-treated (DMSO) wells
[3] = composite Z-score vs DMSO, Conc 20 μM
[4] = Table 4, C2C12 myotubes, 48 h, composite Z-score
[5] = composite Z-score vs mock-treated (DMSO) wells, Conc 20 μM
[6] = composite Z-score vs mock-treated (DMSO) wells, concentration of each compound in μM
[7] = 20 μM, composite Z-score vs DMSO
[8] = composite Z-score vs DMSO wells, Conc 20 μM
[9] = composite Z-score vs DMSO, Conc 11.16 μM

Q: For `COC(=O)c1c(C)c2c(c(C)c1O)OC(=O)c1c(C)c(Cl)c(O)c(Cl)c1O2` [leoidin], which MTT [1, 3] is on record?
A: 0.994

Q: And the GE-HTS (OXPHOS gene expression; [3])?
A: −0.611

Q: What about the mitoOX (mtOXPHOS transcripts; [3]) of the same compound?
A: −0.638

Q: And the Viability (C2C12 myotubes; [3])?
A: 0.035

Q: And the ROS (reactive oxygen species; [3])?
A: 1.481

Q: What about the nucOX (nuOXPHOS transcripts; [3]) of the same compound?
A: −0.523

Q: And the cyt c (cytochrome c; [3])?
A: 0.341

Q: And the ΔΨm [2, 3]?
A: −1.352

Q: What does the source list for `Oc1ccc([C@H]2Oc3cc(O)cc(O)c3C[C@H]2O)cc1` [(2R,3R)-(−)-epiafzelechin]?
A: MTT [1, 3]: −0.486; GE-HTS (OXPHOS gene expression; [3]): −0.497; mitoOX (mtOXPHOS transcripts; [3]): −0.225; Viability (C2C12 myotubes; [3]): −0.719; ROS (reactive oxygen species; [3]): 1.019; nucOX (nuOXPHOS transcripts; [3]): −0.559; cyt c (cytochrome c; [3]): 0.166; ΔΨm [2, 3]: −3.118

Q: With `C[C@]12CCC3c4ccc(OC(=O)c5ccccc5)cc4CCC3C1CCC2=O` (some centres unmarked) [estrone benzoate] as the compound, how does the MTT [1, 3] read?
A: −0.807

Q: And the GE-HTS (OXPHOS gene expression; [3])?
A: 0.061

Q: And the mitoOX (mtOXPHOS transcripts; [3])?
A: −0.179

Q: And the Viability (C2C12 myotubes; [3])?
A: 0.154

Q: And the ROS (reactive oxygen species; [3])?
A: 0.210

Q: What about the nucOX (nuOXPHOS transcripts; [3]) of the same compound?
A: 0.190

Q: What about the cyt c (cytochrome c; [3]) of the same compound?
A: 0.406

Q: What about the ΔΨm [2, 3] of the same compound?
A: −0.277

Q: How did the MTT [1, 4] turn out when `COc1cc(OC)c2c(c1Cl)O[C@@]1(C(=O)CC(=O)C[C@H]1C)C2=O` [griseofulvic acid, reference compound] was run?
A: −0.469

Q: What about the MTT [1, 5] of the same compound?
A: −0.469

Q: And the GE-HTS (OXPHOS gene expression; [5])?
A: −0.370

Q: What about the mitoOX (mtOXPHOS transcripts; [5]) of the same compound?
A: −0.209

Q: What about the Viability (C2C12 myotubes; [4]) of the same compound?
A: 0.176

Q: What about the Viability (C2C12 myotubes; [5]) of the same compound?
A: 0.176

Q: And the ROS (reactive oxygen species; [4])?
A: −0.323

Q: And the ROS (reactive oxygen species; [5])?
A: −0.323

Q: What about the nucOX (nuOXPHOS transcripts; [5]) of the same compound?
A: −0.442

Q: What about the cyt c (cytochrome c; [5]) of the same compound?
A: 0.724

Q: And the ΔΨm ([2]; Table 4, C2C12 myotubes, 48 h, JC-1, composite Z-score)?
A: −0.666

Q: And the ΔΨm [2, 5]?
A: −0.666

Q: With `CC(C(=O)O)[C@H]1CCC2C3CC=C4C[C@@H](O)CC[C@]4(C)C3CC[C@@]21C` (some centres unmarked) as the compound, how does the MTT [1, 6] read?
A: −0.244

Q: What about the GE-HTS (OXPHOS gene expression; [6]) of the same compound?
A: 0.756

Q: What about the mitoOX (mtOXPHOS transcripts; [6]) of the same compound?
A: 0.486

Q: And the Viability (C2C12 myotubes; [6])?
A: −0.295

Q: And the ROS (reactive oxygen species; [6])?
A: 0.315

Q: And the nucOX (nuOXPHOS transcripts; [6])?
A: 0.793

Q: What about the cyt c (cytochrome c; [6]) of the same compound?
A: −0.309

Q: And the ΔΨm [2, 6]?
A: −0.402

Q: `COC1=C[C@@H](C)[C@@H]2C[C@H]3OC(=O)C[C@H]4C(C)=C(OC)C(=O)[C@H]([C@@]2(C)C1=O)[C@@]34C` [quassin, reference compound] was tested. Which MTT [1, 7] did it give?
A: −0.400

Q: And the GE-HTS (OXPHOS gene expression; [7])?
A: 0.095

Q: And the mitoOX (mtOXPHOS transcripts; [7])?
A: −0.168

Q: What about the Viability (C2C12 myotubes; [7]) of the same compound?
A: −0.688

Q: What about the ROS (reactive oxygen species; [7]) of the same compound?
A: 0.925

Q: What about the nucOX (nuOXPHOS transcripts; [7]) of the same compound?
A: 0.205

Q: And the cyt c (cytochrome c; [7])?
A: −0.233

Q: And the ΔΨm [2, 7]?
A: 0.033

Q: With `Oc1ccc2c(c1)O[C@H](c1ccc(O)c(O)c1)[C@@H](O)C2` [fisetinidol, reference compound] as the compound, how does the “MTT (composite Z-score)” value ([1]; Conc 20 μM) read?
A: −1.804

Q: What about the “GE-HTS (composite Z-score)” value (OXPHOS gene expression; Conc 20 μM) of the same compound?
A: −0.998

Q: What about the “mitoOX (composite Z-score)” value (mtOXPHOS transcripts; Conc 20 μM) of the same compound?
A: −0.536

Q: What about the “Viability (composite Z-score)” value (C2C12 myotubes; Conc 20 μM) of the same compound?
A: −1.412

Q: And the “ROS (composite Z-score)” value (reactive oxygen species; Conc 20 μM)?
A: −0.215

Q: And the “nucOX (composite Z-score)” value (nuOXPHOS transcripts; Conc 20 μM)?
A: −1.107

Q: And the “cyt c (composite Z-score)” value (cytochrome c; Conc 20 μM)?
A: 0.234

Q: And the “ΔΨm (composite Z-score)” value ([2]; Conc 20 μM)?
A: −1.528

Q: `C[C@]12C=CC(=O)C=C1CC[C@@H]1[C@@H]2C(=O)C[C@@]2(C)[C@H]1CC[C@]2(O)C(=O)CO` [prednisone] was tested. Which MTT [1, 8] did it give?
A: −1.054

Q: What about the MTT [1, 9] of the same compound?
A: −1.206

Q: And the GE-HTS (OXPHOS gene expression; [8])?
A: −0.290

Q: What about the GE-HTS (OXPHOS gene expression; [9]) of the same compound?
A: −0.315

Q: What about the mitoOX (mtOXPHOS transcripts; [8]) of the same compound?
A: −0.473

Q: What about the mitoOX (mtOXPHOS transcripts; [9]) of the same compound?
A: −0.048

Q: And the Viability (C2C12 myotubes; [8])?
A: −0.474

Q: And the Viability (C2C12 myotubes; [9])?
A: −1.668

Q: What about the ROS (reactive oxygen species; [8]) of the same compound?
A: 0.253

Q: What about the ROS (reactive oxygen species; [9]) of the same compound?
A: 0.623

Q: And the nucOX (nuOXPHOS transcripts; [8])?
A: −0.177

Q: And the nucOX (nuOXPHOS transcripts; [9])?
A: −0.432

Q: What about the cyt c (cytochrome c; [8]) of the same compound?
A: −0.034

Q: What about the cyt c (cytochrome c; [9]) of the same compound?
A: −0.428

Q: What about the ΔΨm [2, 8] of the same compound?
A: 0.258

Q: What about the ΔΨm [2, 9] of the same compound?
A: −0.474

Q: avocatin A was tested. Which MTT [1, 6] did it give?
A: −0.249

Q: And the GE-HTS (OXPHOS gene expression; [6])?
A: −1.145

Q: What about the mitoOX (mtOXPHOS transcripts; [6]) of the same compound?
A: −1.140

Q: What about the Viability (C2C12 myotubes; [6]) of the same compound?
A: 0.133

Q: What about the ROS (reactive oxygen species; [6]) of the same compound?
A: 0.404

Q: What about the nucOX (nuOXPHOS transcripts; [6]) of the same compound?
A: −1.066

Q: And the cyt c (cytochrome c; [6])?
A: 0.849

Q: What about the ΔΨm [2, 6] of the same compound?
A: −0.057

Q: What does the source list for `C=CC(C)(O)CCC=C(C)C` (single isomer, unassigned; (+)) [(+)-linalool]?
A: MTT (composite Z-score) ([1]; Conc 20 μM): −1.338; GE-HTS (composite Z-score) (OXPHOS gene expression; Conc 20 μM): −0.007; mitoOX (composite Z-score) (mtOXPHOS transcripts; Conc 20 μM): −0.342; Viability (composite Z-score) (C2C12 myotubes; Conc 20 μM): −0.653; ROS (composite Z-score) (reactive oxygen species; Conc 20 μM): 0.481; nucOX (composite Z-score) (nuOXPHOS transcripts; Conc 20 μM): 0.131; cyt c (composite Z-score) (cytochrome c; Conc 20 μM): 0.690; ΔΨm (composite Z-score) ([2]; Conc 20 μM): −0.810

From patent publication US20090143279A1 (priority 2007, published 2009)
